Reference: ChEMBL document CHEMBL3272279, “Synthesis of 5-chloro-3'-nitro-4'-substituted salicylanilides, a new series of anthelmintic and antimicrobial agents” (1977)
In brackets after ≈: the same amount, converted by molar mass. Activity calls are given as the source filed them. The rule behind the calls is not given here.

Tests used:
[1] = system: Rodentolepis nana; assay: Cestodicidal activity against Hymenolepis nana infected in po dosed rat administered as single dose; format: functional
[2] = system: Staphylococcus aureus; assay: Antimicrobial activity against penicillin-resistant Staphylococcus aureus assessed as growth inhibition after 24 hrs by two-fold serial dilution technique; format: functional
[3] = system: Agrobacterium tumefaciens; assay: Antimicrobial activity against Agrobacterium tumefaciens assessed as growth inhibition after 24 hrs by two-fold serial dilution technique; format: functional
[4] = system: Cryptococcus neoformans; assay: Antimicrobial activity against Cryptococcus neoformans assessed as growth inhibition after 24 hrs by two-fold serial dilution technique; format: functional
[5] = system: Trichophyton mentagrophytes; assay: Antimicrobial activity against Trichophyton mentagrophytes assessed as growth inhibition after 24 hrs by two-fold serial dilution technique; format: functional
[6] = system: Microsporum canis; assay: Antimicrobial activity against Microsporum canis assessed as growth inhibition after 24 hrs by two-fold serial dilution technique; format: functional
[7] = system: Aspergillus niger; assay: Antimicrobial activity against Aspergillus niger assessed as growth inhibition after 24 hrs by two-fold serial dilution technique; format: functional
[8] = system: Salmonella typhi; assay: Antimicrobial activity against Salmonella typhi assessed as growth inhibition after 24 hrs by two-fold serial dilution technique; format: functional, organism-based; details: Salmonella enterica subsp. enterica serovar Typhi
[9] = system: Escherichia coli; assay: Antimicrobial activity against Escherichia coli assessed as growth inhibition after 24 hrs by two-fold serial dilution technique; format: functional, organism-based
[10] = system: Bacillus subtilis; assay: Antimicrobial activity against Bacillus subtilis assessed as growth inhibition after 24 hrs by two-fold serial dilution technique; format: functional, organism-based
[11] = system: Candida albicans; assay: Antimicrobial activity against Candida albicans assessed as growth inhibition after 24 hrs by two-fold serial dilution technique; format: functional
[12] = system: Rodentolepis nana; assay: Cestodicidal activity against Hymenolepis nana infected in rat at 250 mg/kg, po administered as single dose; format: functional, organism-based; set-up: dose 250 mg/kg
[13] = system: Candida albicans; assay: Antimicrobial activity against Candida albicans assessed as growth inhibition at 0.39 ug/ml after 24 hrs by two-fold serial dilution technique; format: functional, organism-based
[14] = system: Escherichia coli; assay: Antimicrobial activity against Escherichia coli assessed as growth inhibition at 0.78 ug/ml after 24 hrs by two-fold serial dilution technique; format: functional, organism-based

SMILES | MED98 [1] | MIC [2] | MIC [3] | MIC [4] | MIC [5] | MIC [6] | MIC [7] | growth inhibition (GI) [8] | growth inhibition (GI) [9] | growth inhibition (GI) [10] | MIC [11] | Activity [12] | growth inhibition (GI) [11] | growth inhibition (GI) [13] | growth inhibition (GI) [14]
O=C(Nc1ccc(N2CCCCC2)c([N+](=O)[O-])c1)c1cc(Cl)ccc1O | 250 mg/kg | 0.195 µg/mL (≈ 0.519 µM) | 12.5 µg/mL (≈ 33.3 µM) | 1.56 µg/mL (≈ 4.15 µM) | > 100 µg/mL | > 100 µg/mL | 12.5 µg/mL (≈ 33.3 µM) | inactive | inactive | inactive | 25 µg/mL (≈ 66.5 µM) | – | – | – | –
Cc1ccc(Oc2ccc(NC(=O)c3cc(Cl)ccc3O)cc2[N+](=O)[O-])cc1 | – | 0.39 µg/mL (≈ 0.978 µM) | > 100 µg/mL | > 100 µg/mL | 1.56 µg/mL (≈ 3.91 µM) | 0.78 µg/mL (≈ 1.96 µM) | 6.25 µg/mL (≈ 15.7 µM) | inactive | inactive | inactive | – | inactive | inactive | – | –
Cc1cccc(Oc2ccc(NC(=O)c3cc(Cl)ccc3O)cc2[N+](=O)[O-])c1 | – | 0.195 µg/mL (≈ 0.489 µM) | > 100 µg/mL | > 100 µg/mL | 1.56 µg/mL (≈ 3.91 µM) | 0.78 µg/mL (≈ 1.96 µM) | > 100 µg/mL | inactive | inactive | inactive | – | inactive | inactive | – | –
CCCCN(CCCC)c1ccc(NC(=O)c2cc(Cl)ccc2O)cc1[N+](=O)[O-] | – | > 100 µg/mL | > 100 µg/mL | > 100 µg/mL | > 100 µg/mL | 25 µg/mL (≈ 59.5 µM) | 25 µg/mL (≈ 59.5 µM) | inactive | inactive | inactive | – | inactive | inactive | – | –
O=C(Nc1ccc([N+](=O)[O-])cc1Cl)c1cc(Cl)ccc1O [NICLOSAMIDE] | 50 mg/kg | – | – | – | – | – | – | – | – | – | – | – | – | – | –
O=C(Nc1ccc(N2CCC(O)(c3ccccc3)CC2)c([N+](=O)[O-])c1)c1cc(Cl)ccc1O | 250 mg/kg | 0.39 µg/mL (≈ 0.833 µM) | 25 µg/mL (≈ 53.4 µM) | 3.12 µg/mL (≈ 6.68 µM) | 6.25 µg/mL (≈ 13.4 µM) | 6.25 µg/mL (≈ 13.4 µM) | > 100 µg/mL | inactive | inactive | inactive | – | – | inactive | – | –
CCC1CCCCN1c1ccc(NC(=O)c2cc(Cl)ccc2O)cc1[N+](=O)[O-] (stereo not given) | 100 mg/kg | 0.39 µg/mL (≈ 0.966 µM) | > 100 µg/mL | 25 µg/mL (≈ 61.9 µM) | 6.25 µg/mL (≈ 15.5 µM) | 6.25 µg/mL (≈ 15.5 µM) | > 100 µg/mL | inactive | inactive | inactive | – | – | inactive | – | –
CC1CCN(c2ccc(NC(=O)c3cc(Cl)ccc3O)cc2[N+](=O)[O-])CC1 | 250 mg/kg | 0.0975 µg/mL (≈ 0.25 µM) | 25 µg/mL (≈ 64.1 µM) | 3.12 µg/mL (≈ 8.02 µM) | > 100 µg/mL | > 100 µg/mL | > 100 µg/mL | inactive | inactive | inactive | – | – | inactive | – | –
O=C(Nc1ccc(N2CCCCCC2)c([N+](=O)[O-])c1)c1cc(Cl)ccc1O | 50 mg/kg | 0.0975 µg/mL (≈ 0.25 µM) | > 100 µg/mL | > 100 µg/mL | 25 µg/mL (≈ 64.1 µM) | 25 µg/mL (≈ 64.1 µM) | > 100 µg/mL | inactive | inactive | inactive | – | – | inactive | – | –
CC1CCCN(c2ccc(NC(=O)c3cc(Cl)ccc3O)cc2[N+](=O)[O-])C1 (stereo not given) | 250 mg/kg | 0.39 µg/mL (≈ 1 µM) | > 100 µg/mL | 25 µg/mL (≈ 64.1 µM) | 6.25 µg/mL (≈ 16 µM) | 3.12 µg/mL (≈ 8.02 µM) | > 100 µg/mL | inactive | inactive | inactive | – | – | inactive | – | –
O=C(Nc1ccc(N2CCC(c3ccccc3)CC2)c([N+](=O)[O-])c1)c1cc(Cl)ccc1O | 250 mg/kg | 0.39 µg/mL (≈ 0.863 µM) | 25 µg/mL (≈ 55.3 µM) | 3.12 µg/mL (≈ 6.92 µM) | 6.25 µg/mL (≈ 13.8 µM) | 6.25 µg/mL (≈ 13.8 µM) | > 100 µg/mL | inactive | inactive | inactive | – | – | inactive | – | –
C[C@@H]1[C@H](O)[C@@H](C)/C=C/C=C/C=C/C=C/C=C/C=C/C=C/[C@H](O[C@@H]2O[C@H](C)[C@@H](O)[C@H](N)[C@@H]2O)C[C@@H]2O[C@](O)(C[C@@H](O)C[C@@H](O)[C@H](O)CC[C@@H](O)C[C@@H](O)CC(=O)O[C@H]1C)C[C@H](O)[C@H]2C(=O)O [AMPHOTERICIN B] | – | – | – | 0.78 µg/mL (≈ 0.844 µM) | 1.56 µg/mL (≈ 1.69 µM) | 1.56 µg/mL (≈ 1.69 µM) | 12.5 µg/mL (≈ 13.5 µM) | – | – | – | – | – | – | Active | –
O=C(Nc1ccc(Oc2ccccc2)c([N+](=O)[O-])c1)c1cc(Cl)ccc1O | 250 mg/kg | 0.00609 µg/mL (≈ 0.0158 µM) | > 100 µg/mL | > 100 µg/mL | 1.56 µg/mL (≈ 4.05 µM) | 0.78 µg/mL (≈ 2.03 µM) | 25 µg/mL (≈ 65 µM) | inactive | inactive | inactive | – | – | inactive | – | –
CN(C)[C@@H]1C(O)=C(C(N)=O)C(=O)[C@@]2(O)C(O)=C3C(=O)c4c(O)cccc4[C@@](C)(O)[C@H]3C[C@@H]12 [TETRACYCLINE] | – | – | 0.78 µg/mL (≈ 1.76 µM) | – | – | – | – | – | – | – | – | – | – | – | Active
O=C(Nc1ccc(NC2CCCCC2)c([N+](=O)[O-])c1)c1cc(Cl)ccc1O | 30 mg/kg | 0.0975 µg/mL (≈ 0.25 µM) | > 100 µg/mL | 25 µg/mL (≈ 64.1 µM) | 3.12 µg/mL (≈ 8.02 µM) | 3.12 µg/mL (≈ 8.02 µM) | 25 µg/mL (≈ 64.1 µM) | inactive | inactive | inactive | – | – | inactive | – | –
O=C(Nc1ccc(N2CCCC2)c([N+](=O)[O-])c1)c1cc(Cl)ccc1O | – | 0.0975 µg/mL (≈ 0.269 µM) | > 100 µg/mL | 25 µg/mL (≈ 69.1 µM) | > 100 µg/mL | > 100 µg/mL | 25 µg/mL (≈ 69.1 µM) | inactive | inactive | inactive | 25 µg/mL (≈ 69.1 µM) | inactive | – | – | –
CN1CCN(c2ccc(NC(=O)c3cc(Cl)ccc3O)cc2[N+](=O)[O-])CC1 | 100 mg/kg | 0.195 µg/mL (≈ 0.499 µM) | 25 µg/mL (≈ 64 µM) | 25 µg/mL (≈ 64 µM) | 0.195 µg/mL (≈ 0.499 µM) | 0.39 µg/mL (≈ 0.998 µM) | 25 µg/mL (≈ 64 µM) | inactive | inactive | inactive | 25 µg/mL (≈ 64 µM) | – | – | – | –
CCOc1ccc(NC(=O)c2cc(Cl)ccc2O)cc1[N+](=O)[O-] | – | > 100 µg/mL | > 100 µg/mL | > 100 µg/mL | > 100 µg/mL | > 100 µg/mL | > 100 µg/mL | inactive | inactive | inactive | – | inactive | inactive | – | –
O=C(Nc1ccc(N2CCN(c3ccccc3)CC2)c([N+](=O)[O-])c1)c1cc(Cl)ccc1O | 50 mg/kg | 0.39 µg/mL (≈ 0.861 µM) | > 100 µg/mL | 12.5 µg/mL (≈ 27.6 µM) | 3.12 µg/mL (≈ 6.9 µM) | 1.56 µg/mL (≈ 3.44 µM) | 25 µg/mL (≈ 55.2 µM) | inactive | inactive | inactive | – | – | inactive | – | –
CC1CCCCN1c1ccc(NC(=O)c2cc(Cl)ccc2O)cc1[N+](=O)[O-] (stereo not given) | 50 mg/kg | 0.0975 µg/mL (≈ 0.25 µM) | > 100 µg/mL | > 100 µg/mL | 12.5 µg/mL (≈ 32.1 µM) | 6.25 µg/mL (≈ 16 µM) | > 100 µg/mL | inactive | inactive | inactive | – | – | inactive | – | –
O=C(Nc1ccc(Oc2ccc(Cl)cc2)c([N+](=O)[O-])c1)c1cc(Cl)ccc1O | – | 0.78 µg/mL (≈ 1.86 µM) | 25 µg/mL (≈ 59.6 µM) | > 100 µg/mL | 1.56 µg/mL (≈ 3.72 µM) | 0.78 µg/mL (≈ 1.86 µM) | 25 µg/mL (≈ 59.6 µM) | inactive | inactive | inactive | – | inactive | inactive | – | –
O=C(Nc1ccc(Br)cc1)c1cc(Br)cc(Br)c1O [TRIBROMSALAN] | – | 0.0975 µg/mL (≈ 0.217 µM) | 12.5 µg/mL (≈ 27.8 µM) | 6.25 µg/mL (≈ 13.9 µM) | 1.56 µg/mL (≈ 3.47 µM) | 0.78 µg/mL (≈ 1.73 µM) | 12.5 µg/mL (≈ 27.8 µM) | inactive | inactive | inactive | – | – | – | – | –
